In patent US11180504B2 (ORCHID PHARMA LTD., priority 2016, dated 2021):
Values after ≈ are worked out from the molar mass of the structure shown. Like-named read-outs stand apart in the source and are kept apart here.

Experiments:
[1] = test system: carbapenem sensitive Escherichia coli; experiment: MIC by broth micro-dilution (CLSI), carbapenem sensitive E. coli; format: cell-based; conditions: Escherichia coli, ATCC25922, ESBL −ve E. coli ATCC25922; read-out: MIC
[2] = test system: carbapenem sensitive Pseudomonas aeruginosa; experiment: MIC by broth micro-dilution (CLSI), carbapenem sensitive P. aeruginosa; format: cell-based
[3] = test system: carbapenemase producing K. pneumoniae; experiment: MIC by broth micro-dilution (CLSI), carbapenemase producing K. pneumoniae; format: cell-based, Klebsiella pneumoniae; conditions: Klebsiella pneumoniae, ATCCBAA1705, KPC-2 K. pneumoniae ATCC BAA-1705; read-out: MIC
[4] = test system: methicillin-sensitive Staphylococcus aureus; experiment: MIC by broth micro-dilution (CLSI), methicillin-sensitive S. aureus; format: cell-based; conditions: Staphylococcus aureus, ATCC 29213 / MSSA, MSSA S. aureus ATCC29213; read-out: MIC
[5] = Pseudomonas aeruginosa, ATCC27853, Meropenem susceptible P. aeruginosa ATCC27853, read-out: MIC

MIC [1] [µg/mL] | MIC [2, 5] [µg/mL] | MIC [3] [µg/mL] | MIC [4] [µg/mL] | MIC ([2]; Meropenem susceptible P. aeruginosa ATCC27853) [µg/mL] | Structure (SMILES)
0.5 (≈ 1.04 µM) | 64 (≈ 134 µM) | 4 (≈ 8.36 µM) | 4 (≈ 8.36 µM) |  | C[C@@H](NC(=O)Cn1cnnn1)[C@H]1C(=O)N2C(C(=O)O)=C(S[C@H]3CCN(C(=O)CN)C3)[C@H](C)[C@H]12 [Example 449, (4R,5S,6R)-6-((R)-1-(2-(1H-tetrazol-1-yl)acetamido)ethyl)-3-((S)-1-(2-aminoacetyl)pyrrolidin-3-ylthio)-4-methyl-7-oxo-1-azabicyclo[3.2.0]hept-2-ene-2-carboxylic acid]
0.25 (≈ 0.414 µM) | 1 (≈ 1.66 µM) | 2 (≈ 3.31 µM) | 4 (≈ 6.63 µM) |  | C[C@@H](NC(=O)Cn1cnnn1)[C@H]1C(=O)N2C(C(=O)O)=C(S[C@@H]3CN[C@H](C(=O)N4C[C@@H]5C[C@@H](N)C[C@]5(CO)C4)C3)[C@H](C)[C@H]12 [Example 529, (4R,5S,6R)-6-((R)-1-(2-(1H-tetrazol-1-yl)acetamido)ethyl)-3-((3S,5S)-5-((3aR,5R,6aR)-5-amino-3a-(hydroxymethyl)octahydrocyclopenta[c]pyrrole-2-carbonyl)pyrrolidin-3-ylthio)-4-methyl-7-oxo-1-azabicyclo[3.2.0]hept-2-ene-2-carboxylic acid]
0.25 (≈ 0.452 µM) | 8 (≈ 14.5 µM) | 1 (≈ 1.81 µM) | 8 (≈ 14.5 µM) |  | C[C@@H](NC(=O)Cn1cnnn1)[C@H]1C(=O)N2C(C(=O)O)=C(S[C@@H]3CN[C@H](C(=O)N(CCO)CCO)C3)[C@H](C)[C@H]12 [Example 436, (4R,5S,6R)-6-((R)-1-(2-(1H-tetrazol-1-yl)acetamido)ethyl)-3-((3S,5S)-5-(bis(2-hydroxyethyl)carbarnoyl)pyrrolidin-3-ylthio)-4-methyl-7-oxo-1-azabicyclo[3.2.0]hept-2-ene-2-carboxylic acid]
1 (≈ 1.83 µM) | 4 (≈ 7.3 µM) | 4 (≈ 7.3 µM) | 8 (≈ 14.6 µM) |  | C[C@@H](NC(=O)Cn1cnnn1)[C@H]1C(=O)N2C(C(=O)O)=C(S[C@@H]3CN[C@H](C(=O)N4CCC(N)CC4)C3)[C@H](C)[C@H]12 [Example 340, (4R,5S,6R)-6-((R) - 1-(2-(1H-tetrazol-1-yl)acetamido)ethyl)-3-((3S,5S)-5-(4-aminopiperidine-1-carbonyl)pyrrolidin-3-ylthio)-4-methyl-7-oxo-1-azabicyclo[3.2.0]hept-2-ene-2-carboxylic acid]
0.25 (≈ 0.436 µM) |  | 1 (≈ 1.74 µM) | 4 (≈ 6.97 µM) | 2 (≈ 3.49 µM) | C[C@@H](NC(=O)Cn1cnnn1)[C@H]1C(=O)N2C(C(=O)O)=C(S[C@@H]3CN[C@H](C(=O)N4CCC5(CCNC5)C4)C3)[C@H](C)[C@H]12 (single isomer, unassigned) [Example 488]
0.25 (≈ 0.423 µM) | 1 (≈ 1.69 µM) | 1 (≈ 1.69 µM) | 2 (≈ 3.39 µM) |  | C[C@@H](NC(=O)Cn1cnnn1)[C@H]1C(=O)N2C(C(=O)O)=C(S[C@@H]3CN[C@H](C(=O)N4CCN(CCCN)CC4)C3)[C@H](C)[C@H]12 [Example 445, (4R,5S,6R)-6-((R)-1-(2-(1H-tetrazol-1-yl)acetamido)ethyl)-3-((3S,5S)-5-(4-(3-aminopropyl)piperazine-1-carbooyl)pyrrolidin-3-ylthio)-4-methyl-7-oxo-1-azabicyclo[3.2.0]hept-2-ene-2-carboxylic acid]
0.5 (≈ 0.809 µM) | 2 (≈ 3.24 µM) | 2 (≈ 3.24 µM) | 16 (≈ 25.9 µM) |  | C[C@@H](NC(=O)Cn1cnnn1)[C@H]1C(=O)N2C(C(=O)O)=C(S[C@@H]3CN[C@H](C(=O)N4CCC5CNCC5(C(=O)O)C4)C3)[C@H](C)[C@H]12 (stereo partly drawn) [Example 562, 5-((2S,4S)-4-((4R,5S,6R)-6-((R)-1-(2-(1H-tetrazol-1-yl)acetamido)ethyl)-2-carboxy-4-methyl-7-oxo-1-azabicyclo[3.2.0]hept-2-en-3-yl-thio)pyrrolidine-2-carbonyl)octahydro-1H-pyrrolo[3,4-c]pyridine-3a-carboxylic acid]
0.25 (≈ 0.412 µM) | 1 (≈ 1.65 µM) | 1 (≈ 1.65 µM) | 8 (≈ 13.2 µM) |  | C[C@@H](NC(=O)Cn1cnnn1)[C@H]1C(=O)N2C(C(=O)O)=C(S[C@@H]3CN[C@H](C(=O)N4CCN(C[C@H](O)CN)CC4)C3)[C@H](C)[C@H]12 [Example 450, (4R,5S,6R)-6-((R)-1-(2-(1H-tetrazol-1-yl)acetamido)ethyl)-3-((3S,5S)-5-(4-((R)-3-amino-2-hydroxypropyl)piperazine-1-carbonyl)pyrrolidin-3-ylthio)-4-methyl-7-oxo-1-azabicyclo[3.2.0]hept-2-ene-2-carboxylic acid]
4 (≈ 8.09 µM) | 128 (≈ 259 µM) | 8 (≈ 16.2 µM) | 64 (≈ 129 µM) |  | C[C@@H](NC(=O)[C@H]1CNCCN1)[C@H]1C(=O)N2C(C(=O)O)=C(S[C@@H]3CN[C@H](C(=O)N(C)C)C3)[C@H](C)[C@H]12 [Example 285]
0.25 (≈ 0.434 µM) | 0.5 (≈ 0.869 µM) | 1 (≈ 1.74 µM) | 2 (≈ 3.47 µM) |  | C[C@@H](NC(=O)Cn1cnnn1)[C@H]1C(=O)N2C(C(=O)O)=C(S[C@@H]3CN[C@H](C(=O)N4CC5(CC(N)CO5)C4)C3)[C@H](C)[C@H]12 (single isomer, unassigned) [Example 530]
0.5 (≈ 0.866 µM) | 8 (≈ 13.8 µM) | 2 (≈ 3.46 µM) | 4 (≈ 6.92 µM) |  | C[C@@H](NC(=O)Cn1cnnn1)[C@H]1C(=O)N2C(C(=O)O)=C(S[C@@H]3CN[C@H](C(=O)N4CCN(CCO)CC4)C3)[C@H](C)[C@H]12 [Example 416, (4R,5S,6R)-6-((R)-1-(2-(1H-tetrazol-1-yl)acetamido)ethyl)-3-((3S,5S)-5-(4-(2-hydroxyethyl)piperazine-1-carbonyl)pyrrolidin-3-ylthio)-4-methyl-7-oxo-1-azabicyclo[3.2.0]hept-2-ene-2-carboxylic acid]
4 (≈ 7.65 µM) | 32 (≈ 61.2 µM) | 8 (≈ 15.3 µM) | 8 (≈ 15.3 µM) |  | CNCC(=O)N[C@H](C)[C@H]1C(=O)N2C(C(=O)O)=C(S[C@@H]3CN[C@H](CNC(=O)[C@H]4CC[C@@H](N)C4)C3)[C@H](C)[C@H]12 [Example 255]
32 (≈ 57.7 µM) | > 128 | > 128 | 4 (≈ 7.21 µM) |  | C[C@@H](NC(=O)c1ccccc1-n1cnnn1)[C@H]1C(=O)N2C(C(=O)O)=C(S[C@@H]3CN[C@H](C(=O)N(C)C)C3)[C@H](C)[C@H]12 [Example 373]
0.25 (≈ 0.427 µM) | 1 (≈ 1.71 µM) | 1 (≈ 1.71 µM) | 2 (≈ 3.41 µM) |  | C[C@@H](NC(=O)Cn1cnnn1)[C@H]1C(=O)N2C(C(=O)O)=C(S[C@@H]3CN[C@H](C(=O)N4CC5C[C@H]6C[C@@]5(CN6)C4)C3)[C@H](C)[C@H]12 (stereo partly drawn) [Example 541, (4R,5S,6R)-6-((R)-1-(2-(1H-tetrazol-1-yl)acetamido)ethyl)-3-((3S,5S)-5-((1R,7S)-3,8-Diaza-tricyclo[5.2.1.01,5]decane-3-carbonyl)pyrrolidin-3-ylthio)-4-methyl-7-oxo-1-azabicyclo[3.2.0]hept-2-ene-2-carboxylic acid]
4 (≈ 7.9 µM) | > 128 | 64 (≈ 126 µM) | 16 (≈ 31.6 µM) |  | C[C@@H](NC(=O)Cc1nnn(C)n1)[C@H]1C(=O)N2C(C(=O)O)=C(S[C@@H]3CN[C@H](C(=O)N(C)C)C3)[C@H](C)[C@H]12 [Example 301, (4R,5S,6R)-3-((3S,5S)-5-(dimethylcarbamoyl)pyrrolidin-3-ylthio)-4-methyl-6-((R) - 1-(2-(2-methyl-2H-tetrazol-5-yl)acetamido)ethyl)-7-oxo-1-azabicyclo[3.2.0]hept-2-ene-2-carboxylic acid]
0.5 (≈ 0.831 µM) | > 128 | 16 (≈ 26.6 µM) | 4 (≈ 6.65 µM) |  | C[C@@H](NC(=O)Cn1nnnc1C(F)(F)F)[C@H]1C(=O)N2C(C(=O)O)=C(S[C@@H]3CN[C@H](C(=O)N4CC[C@@H](N)C4)C3)[C@H](C)[C@H]12 [Example 347, (4R,5S,6R)-3-((3S,5S)-5-((R)-3-aminopyrrolidine-1-carbonyl)pyrrolidin-3-ylthio)-4-methyl-7-oxo-6-((R)-1-(2-(5-(trifluoromethyl)-1H-tetrazol-1-yl)acetamido)ethyl)-1-azabicyclo[3.2.0]hept-2-ene-2-carboxylic acid]
2 (≈ 3.83 µM) | 4 (≈ 7.65 µM) | 2 (≈ 3.83 µM) | 16 (≈ 30.6 µM) |  | CNCC(=O)N[C@H](C)[C@H]1C(=O)N2C(C(=O)O)=C(S[C@@H]3CN[C@H](C(=O)N4CCC(C)(N)CC4)C3)[C@H](C)[C@H]12 [Example 278]
1 (≈ 1.73 µM) | 32 (≈ 55.2 µM) | 16 (≈ 27.6 µM) | 2 (≈ 3.45 µM) |  | C[C@@H](NC(=O)Cn1cnnn1)[C@H]1C(=O)N2C(C(=O)[O-])=C(SCc3ccc(-c4cn(CCCN)[n+](C)c4)cc3)[C@H](C)[C@H]12 [Example 596, (4R,5S,6R)-6-((R)-1-(2-(1H-tetrazol-1-yl)acetamido)ethyl)-3-(4-(1-(3-aminopropyl)-2-methyl-1H-pyrazol-2-ium-4-yl)benzylthio)-4-methyl-7-oxo-1-azabicyclo[3.2.0]hept-2-ene-2-carboxylate]
8 (≈ 14.2 µM) | 128 (≈ 227 µM) | 16 (≈ 28.4 µM) | 64 (≈ 114 µM) |  | CNCC(=O)N[C@H](C)[C@H]1C(=O)N2C(C(=O)O)=C(S[C@@H]3CN[C@H](CNC(=O)c4cc(=O)c(O)cn4C)C3)[C@H](C)[C@H]12 [Example 254]
1 (≈ 1.62 µM) | > 128 | 32 (≈ 52 µM) | 1 (≈ 1.62 µM) |  | C[C@@H](NC(=O)Cn1nnnc1-c1cccs1)[C@H]1C(=O)N2C(C(=O)O)=C(S[C@@H]3CN[C@H](C(=O)N4CC[C@@H](N)C4)C3)[C@H](C)[C@H]12 [Example 358, (4R,5S,6R)-3-((3S,5S)-5-((R)-3-aminopyrrolidine-1-carbonyl)pyrrolidin-3-ylthio)-4-methyl-7-oxo-6-((R)-1-(2-(5-(thiophen-2-yl)-1H-tetrazol-1-yl)acetamido)ethyl)-1-azabicyclo[3.2.0]hept-2-ene-2-carboxylic acid]
